For experiment [1], the system named is C. neoformans H99. The following applies: previously published peptide; cited from earlier work.
For experiment [2], the system named is C. neoformans H99. Set-up: method as in PMID 35377230. The following applies: with CAS, additive drug synergy; cited from earlier work. An excerpt: We endeavored to develop an inhibitor to target flippase function in Cn and harness the critical importance of Cdc50 in antifungal drug resistance and virulence. […] The peptide sequence was identified using an epitope approach. First, anti-Cdc50 polyclonal antibodi ...

The test system of another experiment is C. neoformans Crm1^OE. Kind of experiment: microbe, parasite or virus in culture. Format: cell-based, Cryptococcus neoformans. The following applies: compound alone; RPMI1640, 37 °C, 48 h. How it is done:
(§1) All microdilution assays with fungi were carried out in accordance with CLSI protocols from M27 for yeasts and M38 for filamentous fungi, respectively, unless otherwise specified.[64],[65] Briefly, 96-well plates were charged with RPMI1640 media, with operating volume in the first column, 200 μL, and half operating volume, 100 μL, in the remaining wells. Drug stock solution in DMSO was aliquoted into the first well in each row. Half of the volume in the dosed well was serially diluted 2-fold until column 11. Column 11 was used as the negative growth control, and column 12 was used as the positive growth control. ON yeast cultures in YPD were washed twice in DD-H2O, resuspended in PBS, and adjusted to 5000 cfu/mL in RPMI. The 96-well plate was inoculated with 100 μL aliquots of cell suspension per well. Plates were incubated at 37 °C for 2 days.

The subject of experiment [3] is C. neoformans H99. In words: microbe, parasite or virus in culture. Format: cell-based, Cryptococcus neoformans. How it is done: as §1
Another experiment concerns C. neoformans MRL862. In words: microbe, parasite or virus in culture. Format: cell-based, Cryptococcus neoformans. To be noted: compound alone; RPMI1640, 37 °C, 48 h. Here is the method:
as §1

A further experiment has as its system C. neoformans apt1Δ. Kind of experiment: microbe, parasite or virus in culture. Format: cell-based, Cryptococcus neoformans. To be noted: compound alone; RPMI1640, 37 °C, 48 h. Here is the method: as §1
A further experiment deals with C. neoformans apt2Δ. Kind of experiment: microbe, parasite or virus in culture. The following applies: compound alone; RPMI1640, 37 °C, 48 h. Format: cell-based, Cryptococcus neoformans. How it is done:
as §1

In a further experiment the test system is C. neoformans apt3Δ. Kind of experiment: microbe, parasite or virus in culture. Format: cell-based, Cryptococcus neoformans. To be noted: compound alone; RPMI1640, 37 °C, 48 h. Here is the method: as §1
Another experiment deals with C. neoformans apt4Δ. In words: microbe, parasite or virus in culture. Format: cell-based, Cryptococcus neoformans. To be noted: compound alone; RPMI1640, 37 °C, 48 h. How it is done: as §1
In another experiment the test system is C. neoformans cdc50Δ. In words: microbe, parasite or virus in culture. Format: cell-based, Cryptococcus neoformans. Here is the method: as §1
For the next experiment, the system named is C. neoformans crm1Δ. Kind of experiment: microbe, parasite or virus in culture. Format: cell-based, Cryptococcus neoformans. To be noted: compound alone; RPMI1640, 37 °C, 48 h. How it is done:
as §1

Another experiment has as its system C. glabrata 2001. In words: microbe, parasite or virus in culture. Format: cell-based, Candida glabrata. Here is the method: as §1
The test system of another experiment is C. glabrata FKS1-S629P. Kind of experiment: microbe, parasite or virus in culture. Format: cell-based, Candida glabrata. To be noted: compound alone; RPMI1640, 37 °C, 48 h. Here is the method:
as §1

The next experiment has as its system C. glabrata FKS2-S663P. Kind of experiment: microbe, parasite or virus in culture. The following applies: compound alone; RPMI1640, 37 °C, 48 h. Format: cell-based, Candida glabrata. Here is the method: as §1
The next experiment deals with C. albicans SC5413. Kind of experiment: microbe, parasite or virus in culture. Format: cell-based, Candida albicans. Here is the method:
as §1

In another experiment the test system is C. auris B11245. Kind of experiment: microbe, parasite or virus in culture. Format: cell-based, Candida auris. The following applies: compound alone; RPMI1640, 37 °C, 48 h; * = paradoxical growth observed (CAS). Here is the method: as §1
The test system of the next experiment is A. fumigatus AF293. Kind of experiment: microbe, parasite or virus in culture. Format: cell-based, Aspergillus fumigatus. The following applies: compound alone; RPMI1640, 37 °C, 48 h; * = paradoxical growth observed (CAS). Here is the method:
as §1

Another experiment has as its system Cn H99. Kind of experiment: microbe, parasite or virus in culture. The following applies: 37 °C, 48 h. Format: cell-based, Cryptococcus neoformans. How it is done: (§2) Previous studies have shown that modifying microbiological media with salts such as CaCl2 can have a drastic effect on the growth of fungi and their responses to antifungals.[19],[35] In the case of CaCl2, the divalent cation, Ca^2+, is involved in fungal cell stress response. To understand how the peptide activity may involve calcium and stress response, the MICs of KKOO, KKOO-NH2, FLC, and CAS were assessed as a function of the calcium concentration in liquid YPD media. It was observed that calcium enrichment completely desensitized the wild-type strain to KKOO and KKOO-NH2, Tables 7 and 8, respectively. Effects of calcium enrichment on the susceptibility of Cryptococcus to CAS similar to literature values were recorded, Supporting Information, Table S7.[35]
(§3) In order to control for the effects of enriching YPD with a divalent cation, MICs and ROS production were also measured as a function of the MgCl2 supplement at the same millimolar concentrations of cation as in the CaCl2-modified experiments. […] No peptide susceptibility changes were observed against Cn cdc50Δ in magnesium-enriched media, Table S9. ROS production in H99 induced by peptide exposure was inhibited after 30 min of treatment in the magnesium-enriched condition, similar to the levels observed in the calcium-enriched media at 16 μg/mL KKOO-NH2, Figure S1. […] The link between peptide activity and calcium homeostasis may be vital in understanding precisely how the peptide kills fungal cells and requires more research to elucidate.
as §1

A further experiment deals with Cn cdc50Δ. In words: microbe, parasite or virus in culture. Format: cell-based, Cryptococcus neoformans. The following applies: 37 °C, 48 h. Here is the method:
as §2, §3, §1

In a further experiment the test system is Cn Crm1-oe. In words: microbe, parasite or virus in culture. Format: cell-based, Cryptococcus neoformans. The following applies: YPD + 0 mM Ca2+, 37 °C, 48 h. Here is the method:
as §2, §1

A further experiment relates to Cn apt1Δ. In words: microbe, parasite or virus in culture. Format: cell-based, Cryptococcus neoformans. To be noted: 37 °C, 48 h. How it is done:
as §2, §1

Another experiment has as its system Cn crm1Δ. Kind of experiment: microbe, parasite or virus in culture. Format: cell-based, Cryptococcus neoformans. To be noted: YPD + 0 mM Ca2+, 37 °C, 48 h. Here is the method: as §2, §1
Experiment [4] concerns C. neoformans H99. Format: cell-based, Cryptococcus neoformans. To be noted: 2× MIC; subsequent rebound of the population through 8 h; RPMI1640, 30 °C. Here is the method: Culture tubes were prepared with aliquots of 2.0 mL of RPMI1640 (containing Q, MOPS, pH = 7, no phenol red). The tubes were sealed to prevent evaporation and were equilibrated with the incubation chamber overnight, at 30 °C. On the day of the experiment, overnight yeast cultures in YPD were washed twice with DD-H2O and resuspended in DD-H2O. The OD600 of the cell suspension was adjusted to 4.6, ≈2 × 10^6 cfu/mL, in DD-H2O. A 200 μL aliquot of adjusted cell suspension was added systematically to each tube, followed by 200 μL sampling for the 0 h time point. Immediately after sampling, the antifungal compounds were added, and the tubes were placed in the incubator at 30 °C with shaking at 225 rpm. The sampled aliquot was transferred to a 96-well plate and serially diluted six times, 10-fold each time. The resulting cell suspensions were spotted onto YPD plates in a grid pattern of 5 μL per spot. Subsequently, tubes were briefly removed from the incubator, and 100 μL aliquots were sampled at 2, 4, 6, and 8 h time points. Cells were counted on the YPD plates at either 24 or 48 h after plate spotting, depending on when the colonies were countable. Images of the YPD plates were recorded on the Bio-Rad Gel imager after 48 h of incubation at 30 °C. […] 2 C = number of colonies counted, Df = dilution factor = 10^n–1, n = column that the cells were counted, and Vf = volume factor = 1/0.005 mL.

Setting [5] is: Table S1, unit and conditions not given (MICs elsewhere in μg/mL).
Where [6] appears, read: compound alone, RPMI1640, 37 °C, 48 h.

The text below walks through data of paper PMC11555678, “Improved Broad Spectrum Antifungal Drug Synergies with Cryptomycin, a Cdc50-Inspired Antifungal Peptide” (ACS Infectious Diseases, 2024).

In brackets after ≈: the same amount, converted by molar mass. Read-outs that look alike come from different tables or passages of the source. Square brackets hold non-standard residues; d marks the D form. Ends that are not written are not given here. Peptide text beside a SMILES is read from it. * marks the point of attachment. Myristoyl = CCCCCCCCCCCCCC(=O)*; Orn = NCCC[C@H](N)C(=O)O

Turning to AW9-Ma (Myristoyl-WGGIKKNYA), the MIC with C. neoformans H99 [1] was 64 µg/mL. For the same compound, in the experiment with C. neoformans H99 [2], the “fractional inhibition concentration (FIC) index” value is listed as 0.5.
Regarding `CCCCCCCCCCCCCC(=O)N[C@@H](Cc1c[nH]c2ccccc12)C(=O)NCC(=O)NCC(=O)N[C@H](C(=O)N[C@@H](CCCN)C(=O)N[C@@H](CCCN)C(=O)N[C@@H](CC(N)=O)C(=O)N[C@@H](Cc1ccc(O)cc1)C(=O)N[C@@H](C)C(=O)O)[C@@H](C)CC` [KKOO] (Myristoyl-WGGI[Orn][Orn]NYA-OH), the MIC worked out at 8 µg/mL (≈ 6.57 µM) against C. neoformans Crm1^OE; 16 µg/mL (≈ 13.1 µM) against C. neoformans H99 [3] (setting [6]); 8 µg/mL (≈ 6.57 µM) in the experiment on C. neoformans MRL862; 4 µg/mL (≈ 3.28 µM) against C. neoformans apt1Δ; 8 µg/mL (≈ 6.57 µM) against C. neoformans apt2Δ; 8 µg/mL (≈ 6.57 µM) against C. neoformans apt3Δ. The MIC in the experiment on C. neoformans apt4Δ came out at 8 µg/mL (≈ 6.57 µM); with C. neoformans cdc50Δ (setting [6]), 4 µg/mL (≈ 3.28 µM); with C. neoformans crm1Δ, 8 µg/mL (≈ 6.57 µM); against C. glabrata 2001 (setting [6]), 16 µg/mL (≈ 13.1 µM); in the experiment with C. glabrata FKS1-S629P, 16 µg/mL (≈ 13.1 µM); against C. glabrata FKS2-S663P it was 16 µg/mL (≈ 13.1 µM). Besides, the MIC against C. albicans SC5413 (setting [6]) was 32 µg/mL (≈ 26.3 µM); in the experiment with C. auris B11245 it was greater than 128 µg/mL; in the experiment on A. fumigatus AF293, greater than 128 µg/mL; with Cn H99 (YPD + 0 mM Ca2+), 32 µg/mL; in the experiment on Cn H99 (YPD + 0 mM Mg2+), 16 µg/mL; with Cn H99 (YPD + 2.5 mM Ca2+), greater than 128 µg/mL. For the same compound, the MIC in the experiment on Cn H99 (YPD + 2.5 mM Mg2+) is 32 µg/mL; in the experiment with Cn H99 (YPD + 5 mM Ca2+), greater than 128 µg/mL; in the experiment with Cn H99 (YPD + 5 mM Mg2+), 32 µg/mL; with Cn H99 (YPD + 10 mM Ca2+) it was greater than 128 µg/mL; in the experiment on Cn H99 (YPD + 10 mM Mg2+), 32 µg/mL; in the experiment on Cn H99 (YPD + 20 mM Ca2+) it was greater than 128 µg/mL. Moreover, the MIC came to 128 µg/mL in the experiment with Cn H99 (YPD + 20 mM Mg2+); 4 µg/mL with Cn cdc50Δ (YPD + 0 mM Ca2+); 8 µg/mL with Cn cdc50Δ (YPD + 0 mM Mg2+, unit inferred); 8 µg/mL in the experiment on Cn cdc50Δ (YPD + 2.5 mM Ca2+); 8 µg/mL in the experiment on Cn cdc50Δ (YPD + 2.5 mM Mg2+, unit inferred); 8 µg/mL with Cn cdc50Δ (YPD + 5 mM Ca2+). For the same compound, the MIC in the experiment with Cn cdc50Δ (YPD + 5 mM Mg2+, unit inferred) was 8 µg/mL; in the experiment on Cn cdc50Δ (YPD + 10 mM Ca2+), 8 µg/mL; with Cn cdc50Δ (YPD + 10 mM Mg2+, unit inferred), 4 µg/mL; in the experiment on Cn cdc50Δ (YPD + 20 mM Ca2+), 8 µg/mL; in the experiment with Cn cdc50Δ (YPD + 20 mM Mg2+, unit inferred) it was 8 µg/mL; in the experiment with Cn Crm1-oe, 8 µg/mL. In addition, the values for the MIC in the experiment with Cn apt1Δ (YPD + 0 mM Ca2+), with Cn apt1Δ (YPD + 2.5 mM Ca2+) and in the experiment with Cn crm1Δ were 8 µg/mL, 32 µg/mL and 8 µg/mL, respectively. In addition, the “MIC (SAR screen peptides)” value in the experiment on C. neoformans H99 [3] (setting [5]) was determined as 16; in the experiment on C. neoformans cdc50Δ (setting [5]), 4; in the experiment on C. glabrata 2001 (setting [5]), 16; in the experiment with C. albicans SC5413 (setting [5]), 16. For the same compound, the “time of peak killing activity” value with C. neoformans H99 [4] was no more than 2 h.
